Assay results from paper PMC8699189 (Biomolecules, 2021).

Target: T1, MavL(42-435) (Legionella pneumophila, UniProt Q5ZSJ1)
T1 construct: gene lpg2526
Details: 15 mM Tris-HCl pH 8.0, 50 mM NaCl, 20 °C; 300 µM ligand into 30 µM protein

T1 sequence (Q5ZSJ1 42-435 limits assumed): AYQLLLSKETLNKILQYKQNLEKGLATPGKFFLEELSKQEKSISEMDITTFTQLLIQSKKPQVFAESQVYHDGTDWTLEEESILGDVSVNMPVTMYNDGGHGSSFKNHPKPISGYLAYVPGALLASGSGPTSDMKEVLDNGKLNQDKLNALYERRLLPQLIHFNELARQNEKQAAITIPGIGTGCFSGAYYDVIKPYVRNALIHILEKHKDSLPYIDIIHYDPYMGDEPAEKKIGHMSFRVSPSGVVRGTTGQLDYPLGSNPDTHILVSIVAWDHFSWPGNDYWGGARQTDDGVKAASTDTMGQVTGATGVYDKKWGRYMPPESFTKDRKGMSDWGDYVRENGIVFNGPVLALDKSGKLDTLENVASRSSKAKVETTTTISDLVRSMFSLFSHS

**Q.** How did the Kd turn out when Nc1ncnc2c1ncn2[C@@H]1O[C@H](COP(=O)(O)OP(=O)(O)OC[C@H]2OC(O)[C@H](O)[C@@H]2O)[C@@H](O)[C@H]1O (stereo partly shown) [ADP-ribose] was run?
**A.** The Kd was 13 µM.
